This note sets out measurements from ChEMBL document CHEMBL1201862, “PubChem BioAssay data set” (2004).

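How tested: cells in 96-well plates exposed to compound for 48 hours at five concentrations. The concentration for 50% growth inhibition is given as GI50.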 Calls of active or inactive are those of the source. Rule as the data show it: active = GI50 up to about 1.1 µM and inactive = higher.

Some test systems named below: EKVX; Hs-578T; SW-620; NCI-H226; HOP-92; T47D; OVCAR-3; NCI/ADR-RES; SNB-19; ACHN; LOX IMVI; SK-MEL-28; HCC 2998; SF-539; SN12C; MDA-MB-231; HCT-15; A549.
Holding throughout (experiment): NCI anticancer screen, dose series, 48 h

With `O=P(Nc1ccccc1)(Oc1ccccc1)N1CCN(c2ccccc2)CC1` (centres undefined), the GI50 with EKVX is 17.4 µM (inactive); with Hs-578T, 17.9 µM (inactive); in the assay on SW-620 it was 25.4 µM (inactive); in the assay with NCI-H226 it was 22.3 µM (inactive); in the assay on HOP-92, 18.7 µM (inactive); in the assay with T47D, 22.6 µM (inactive). The GI50 was 18.7 µM (inactive) in the assay with OVCAR-3; 17.6 µM (inactive) in the assay with NCI/ADR-RES; 15.8 µM (inactive) with SNB-19; 22.4 µM (inactive) in the assay with ACHN; 17.4 µM (inactive) in the assay with LOX IMVI; 19.7 µM (inactive) in the assay with SK-MEL-28. The GI50 in the assay on HCC 2998 is 16.3 µM (inactive); in the assay with SF-539 it was 19.5 µM (inactive); with SN12C, 17.8 µM (inactive); in the assay on MDA-MB-231 it was 14.9 µM (inactive); with HCT-15, 13.8 µM; in the assay with A549 it was 17.5 µM (inactive).

As for `Cc1cc(=O)nc(Sc2ccc([N+](=O)[O-])cc2[N+](=O)[O-])[nH]1`, the GI50 in the assay on EKVX is 32.7 µM (inactive); in the assay on Hs-578T it was 37.8 µM (inactive); with SW-620, 3.72 µM (inactive); in the assay on NCI-H226, 19.7 µM (inactive); in the assay with HOP-92, 6.64 µM (inactive); in the assay with T47D, 17.5 µM (inactive). Further, the GI50 with OVCAR-3 was 17 µM (inactive); in the assay with NCI/ADR-RES it was 30.4 µM (inactive); with SNB-19, 26.1 µM (inactive); in the assay on ACHN, 19.8 µM (inactive); in the assay on LOX IMVI, 2.81 µM (inactive); with SK-MEL-28, 20 µM (inactive). Further, the GI50 in the assay with HCC 2998 is 16.3 µM (inactive); in the assay on SN12C, 10.8 µM (inactive); in the assay with MDA-MB-231 it was 23.2 µM (inactive); with HCT-15, 14.2 µM; in the assay on A549 it was 18.5 µM (inactive).

Turning to `c1sc(NC2=NCCO2)c2c1CCCC2`, the GI50 is > 100 µM (inactive) in the assay on EKVX; > 100 µM (inactive) in the assay with Hs-578T; > 100 µM (inactive) with SW-620; > 100 µM (inactive) in the assay with NCI-H226; > 100 µM (inactive) in the assay with HOP-92; 88.1 µM (inactive) in the assay on T47D. For the same molecule, the GI50 in the assay with OVCAR-3, in the assay on NCI/ADR-RES, in the assay on SNB-19, with ACHN, with LOX IMVI and in the assay with SK-MEL-28 was > 100 µM (inactive) in each case. For the same molecule, the GI50 with HCC 2998 was > 100 µM (inactive); in the assay on SF-539, > 100 µM (inactive); with MDA-MB-231, > 100 µM (inactive); in the assay with HCT-15, greater than 100 µM; in the assay with A549, > 100 µM (inactive).

With `O=C(c1ccncc1)C1C(=O)c2ccccc2C1C1(O)c2ccccc2CC1C(O)c1ccncc1` (centres undefined), the GI50 in the assay with EKVX was 33 µM (inactive); in the assay with Hs-578T it was 38.6 µM (inactive); in the assay on SW-620 it was 71.8 µM (inactive); with NCI-H226 it was > 100 µM (inactive); in the assay with HOP-92, 47.9 µM (inactive); in the assay on T47D, 50.8 µM (inactive). For the same molecule, the GI50 in the assay on NCI/ADR-RES was 46.6 µM (inactive); in the assay with SNB-19 it was 46.2 µM (inactive); with ACHN, 62.1 µM (inactive); in the assay with LOX IMVI it was 33.4 µM (inactive); in the assay with SK-MEL-28, 89.3 µM (inactive); in the assay with HCC 2998, 57.3 µM (inactive). The GI50 in the assay with SF-539 was 77.6 µM (inactive); in the assay on SN12C, 46.9 µM (inactive); in the assay on MDA-MB-231 it was 39.2 µM (inactive); with HCT-15, 41.3 µM; in the assay on A549, 29.6 µM (inactive).

In the case of `CC(C)=C1C(=O)C[C@]2(C)C/C=C(\C)CC/C=C(\C)CC[C@@H]12`, the GI50 with EKVX was 11.2 µM (inactive); in the assay with Hs-578T it was 11 µM (inactive); in the assay on SW-620 it was 9.31 µM (inactive); with NCI-H226, 8.69 µM (inactive); with HOP-92 it was 9.53 µM (inactive); in the assay on T47D it was 14.9 µM (inactive). In addition, the GI50 was 8.53 µM (inactive) in the assay with OVCAR-3; 7.36 µM (inactive) in the assay on NCI/ADR-RES; > 50 µM (inactive) in the assay on SNB-19; 9.02 µM (inactive) with ACHN; 8.22 µM (inactive) in the assay on SK-MEL-28; 7.53 µM (inactive) in the assay on HCC 2998. The GI50 is 8.57 µM (inactive) in the assay on SF-539; 9.42 µM (inactive) in the assay on SN12C; 7.89 µM (inactive) in the assay with MDA-MB-231; 8.28 µM in the assay with HCT-15; 14.1 µM (inactive) with A549.

For the molecule `O=c1[nH]c(=O)n(C2CC(O)C(CO)O2)cc1/N=N/NCCCc1ccccc1` (centres undefined), the GI50 in the assay with EKVX, in the assay on Hs-578T, in the assay with NCI-H226, with HOP-92, in the assay with T47D and with OVCAR-3 was > 100 µM (inactive) each time. The GI50 with NCI/ADR-RES, with ACHN, in the assay with LOX IMVI, with SK-MEL-28, in the assay on HCC 2998 and with SF-539 was > 100 µM (inactive) each time. Further, the GI50 is > 100 µM (inactive) in the assay on SN12C, > 100 µM (inactive) with MDA-MB-231, greater than 100 µM in the assay on HCT-15 and > 100 µM (inactive) in the assay with A549.

With `O=S(=O)(Oc1ccc2oc3ccccc3c2c1-c1c(OS(=O)(=O)C(F)(F)F)ccc2oc3ccccc3c12)C(F)(F)F`, the GI50 with EKVX, in the assay with Hs-578T, with SW-620, with NCI-H226, in the assay on HOP-92 and in the assay on T47D was > 100 µM (inactive) throughout. In addition, the GI50 in the assay with OVCAR-3, with NCI/ADR-RES, in the assay on SNB-19, with ACHN, in the assay with LOX IMVI and in the assay on SK-MEL-28 was > 100 µM (inactive) each time. The GI50 is > 100 µM (inactive) in the assay with HCC 2998; > 100 µM (inactive) with SF-539; > 100 µM (inactive) in the assay with MDA-MB-231; greater than 100 µM with HCT-15; > 100 µM (inactive) with A549.

Take `C=CCN1CCC(c2cc(C(=O)OCC)[nH]c2-c2cc(C)no2)C1=O` (centres undefined): the GI50 with EKVX, in the assay on Hs-578T, in the assay on SW-620, with NCI-H226, with HOP-92 and with T47D was > 100 µM (inactive) throughout. The GI50 in the assay on OVCAR-3, in the assay on NCI/ADR-RES, with SNB-19, in the assay on LOX IMVI, in the assay with SK-MEL-28 and in the assay on HCC 2998 was > 100 µM (inactive) in each case. The GI50 with SF-539 is > 100 µM (inactive); in the assay with SN12C it was > 100 µM (inactive); with MDA-MB-231, > 100 µM (inactive); in the assay with HCT-15 it was greater than 100 µM; in the assay with A549 it was > 100 µM (inactive).

As to `CC[C@@H]1CSC(/C=C/C2OC3OC(C)(C)OC3C3OC(C)(C)OC23)=N1` (some centres undefined), the GI50 in the assay with EKVX was 11.8 µM (inactive); with Hs-578T it was 17.9 µM (inactive); with SW-620, 3.22 µM (inactive); in the assay with NCI-H226 it was 16.4 µM (inactive); in the assay on HOP-92 it was 3.7 µM (inactive); with T47D, 4.25 µM (inactive). The GI50 in the assay with OVCAR-3 was 4.97 µM (inactive); with NCI/ADR-RES, 12.7 µM (inactive); with SNB-19, 20.4 µM (inactive); in the assay on ACHN, 9.44 µM (inactive); with LOX IMVI it was 6.53 µM (inactive); in the assay on SK-MEL-28, 11.9 µM (inactive). Also, the GI50 in the assay on HCC 2998 was 3.03 µM (inactive); in the assay with SF-539 it was 4.84 µM (inactive); in the assay on SN12C, 11.1 µM (inactive); in the assay with MDA-MB-231, 12.4 µM (inactive); in the assay with HCT-15 it was 3.75 µM; in the assay with A549, 22.5 µM (inactive).

Turning to `CCOC(=O)C1=C(C)C2C=C(c3cccs3)CC(c3ccc(Cl)cc3)=C2OC1=O` (centres undefined), the GI50 with EKVX is 31 µM (inactive); with Hs-578T it was > 100 µM (inactive); with SW-620, 65 µM (inactive); in the assay with NCI-H226, 21 µM (inactive); with HOP-92, > 100 µM (inactive); with T47D it was 3.97 µM (inactive). The GI50 with OVCAR-3 was 24.7 µM (inactive); in the assay with NCI/ADR-RES, 30.5 µM (inactive); in the assay on SNB-19, 45.2 µM (inactive); in the assay with ACHN it was 32.7 µM (inactive); in the assay with LOX IMVI, 16.9 µM (inactive); with SK-MEL-28, 94.4 µM (inactive). Moreover, the GI50 with HCC 2998 is 22.5 µM (inactive); with SN12C it was 44.3 µM (inactive); in the assay on MDA-MB-231, 92.3 µM (inactive); in the assay on HCT-15 it was 16.8 µM; with A549 it was > 100 µM (inactive).

For the molecule `CC(c1ccccc1)n1c2ccccc2c2c(N)ncnc21` (centres undefined), the GI50 with EKVX is 10.8 µM (inactive); in the assay with Hs-578T, 18 µM (inactive); with SW-620 it was 22.6 µM (inactive); with HOP-92, 13.6 µM (inactive); with T47D it was 15.5 µM (inactive); in the assay with OVCAR-3, 16.2 µM (inactive). The GI50 with NCI/ADR-RES was 20.4 µM (inactive); in the assay on SNB-19, 16.5 µM (inactive); with ACHN, 11.7 µM (inactive); in the assay on LOX IMVI it was 17.5 µM (inactive); in the assay on SK-MEL-28, 17.9 µM (inactive); in the assay with HCC 2998, 18.2 µM (inactive). In addition, the GI50 in the assay on SF-539 is 17.1 µM (inactive); with MDA-MB-231, 19.1 µM (inactive); in the assay on HCT-15 it was 23.4 µM; in the assay with A549, 21.6 µM (inactive).

Regarding `CN1CCCCC1CCN1c2ccccc2Sc2ccc([S+](C)[O-])cc21` (centres undefined) [MESORIDAZINE], the GI50 with EKVX, in the assay on Hs-578T, in the assay with SW-620, in the assay with NCI-H226, in the assay with HOP-92 and in the assay on T47D was > 100 µM (inactive) each time. Moreover, the GI50 with OVCAR-3, in the assay with NCI/ADR-RES, in the assay on SNB-19, in the assay with ACHN, in the assay with LOX IMVI and in the assay with SK-MEL-28 was > 100 µM (inactive) throughout. For the same molecule, the GI50 with SF-539 is > 100 µM (inactive); in the assay on SN12C, > 100 µM (inactive); in the assay on MDA-MB-231 it was > 100 µM (inactive); with HCT-15, greater than 100 µM; with A549, > 100 µM (inactive).
